For this assay, the target named is T1, MAGL (Homo sapiens, UniProt Q99685).
T1 sequence (Q99685 1-303): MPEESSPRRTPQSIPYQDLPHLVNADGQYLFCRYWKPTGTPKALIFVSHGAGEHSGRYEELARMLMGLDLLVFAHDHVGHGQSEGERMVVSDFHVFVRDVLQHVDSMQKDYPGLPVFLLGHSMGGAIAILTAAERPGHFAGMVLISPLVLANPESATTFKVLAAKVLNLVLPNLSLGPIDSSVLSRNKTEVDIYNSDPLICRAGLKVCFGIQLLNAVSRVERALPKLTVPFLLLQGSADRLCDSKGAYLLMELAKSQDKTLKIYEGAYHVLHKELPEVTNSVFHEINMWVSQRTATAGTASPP
Briefly: 2-AG assay (MAGL inhibitory activity, hydrolysis of 2-arachidonoylglycerol to arachidonic acid followed by mass spectrometry). It is filed as biochemical. The conditions noted are these: 8 μM 2-arachidonoylglycerol, 15 min pre-incubation, 30 min incubation at RT, RapidFire MS readout. The essentials:
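Human MAGL ([…] final) pre-incubated 15 min at RT with compound in 50 mM TRIS, 1 mM EDTA, 0.01% Tween-20, 2.5% DMSO; 8 μM 2-AG then added for 30 min at RT. Acetonitrile quench with d8-arachidonic acid; arachidonic acid measured by RapidFire SPE–MS/MS, activity from arachidonic acid/d8 ratio.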
For `O=C(N1CC2(CC(n3cnc(C4(O)CC4)n3)C2)C1)N1CC2(CN(Cc3ccc(S(=O)(=O)C(F)(F)F)cc3)C2)C1` [Example 412, [6-[3-(1-hydroxycyclopropyl)-1,2,4-triazol-1-yl]-2-azaspiro[3.3]heptan-2-yl]-[6-[[4-(trifluoromethylsulfonyl)phenyl]methyl]-2,6-diazaspiro[3.3]heptan-2-yl]methanone], the half-maximal inhibitory concentration (IC50) (commonly the point on the concentration scale where inhibition reaches its midpoint) is 7.96 nM.
Under `CS(=O)(=O)c1cc(Cl)ccc1-c1ccc(C2CN(C(=O)N3CC4(CC(n5cncn5)C4)C3)C2)cc1` [Example 413, [3-[4-(4-chloro-2-methylsulfonyl-phenyl)phenyl]azetidin-1-yl]-[6-(1,2,4-triazol-1-yl)-2-azaspiro[3.3]heptan-2-yl]methanone] stands 47.8 nM; under `CP(C)(=O)c1ccc(COC2CN(C(=O)N3CC4(CC(n5cnc(C(F)(F)F)n5)C4)C3)C2)cc1` [Example 414, [3-[(4-dimethyl-phosphorylphenyl)methoxy]azetidin-1-yl]-[6-[3-(trifluoromethyl)-1,2,4-triazol-1-yl]-2-azaspiro[3.3]heptan-2-yl]methanone], 2960 nM.
As for `CP(C)(=O)c1ccc(COC2CN(C(=O)N3CC4(CC(n5cnc(C6CC6)n5)C4)C3)C2)cc1` [Example 415, [6-(3-cyclopropyl-1,2,4-triazol-1-yl)-2-azaspiro[3.3]heptan-2-yl]-[3-[(4-dimethylphosphorylphenyl)methoxy]azetidin-1-yl]methanone], the figure is 1060 nM; as for `CS(=N)(=O)c1cc(F)ccc1CC1CC2(C1)CN(C(=O)N1CC3(CC(n4cnc(C5CC5)n4)C3)C1)C2` (stereo not drawn) [Example 416, [6-(3-cyclopropyl-1,2,4-triazol-1-yl)-2-azaspiro[3.3]heptan-2-yl]-[6-[[4-fluoro-2-(methylsulfonimidoyl)phenyl]methyl]-2-azaspiro[3.3]heptan-2-yl]methanone], 1.12 nM.
`CC(C)(C)Cn1nncc1-c1ccc(C2CN(C(=O)N3CC4(CC(n5cncn5)C4)C3)C2)cc1` [Example 417, [3-[4-[3-(2,2-dimethylpropyl)triazol-4-yl]phenyl]azetidin-1-yl]-[6-(1,2,4-triazol-1-yl)-2-azaspiro[3.3]heptan-2-yl]methanone] showed an IC50 of 359 nM.
As for `O=C(N1CC(C23CC(c4nnc(C5(C(F)(F)F)CC5)[nH]4)(C2)C3)C1)N1CC2(CC(n3cnc(C(F)(F)F)n3)C2)C1` [Example 418, [3-[3-[5-[1-(trifluoromethyl)cyclopropyl]-4H-1,2,4-triazol-3-yl]-1-bicyclo[1.1.1]pentanyl]azetidin-1-yl]-[6-[3-(trifluoromethyl)-1,2,4-triazol-1-yl]-2-azaspiro[3.3]heptan-2-yl]methanone], the figure is 4.75 nM; as for `O=C(N1CC(C23CC(c4nnc(C5(C(F)(F)F)CC5)[nH]4)(C2)C3)C1)N1CC2(CC(n3cnc(C4CC4)n3)C2)C1` [Example 419, [6-(3-cyclopropyl-1,2,4-triazol-1-yl)-2-azaspiro[3.3]heptan-2-yl]-[3-[3-[5-[1-(trifluoromethyl)cyclopropyl]-4H-1,2,4-triazol-3-yl]-1-bicyclo[1.1.1]pentanyl]azetidin-1-yl]methanone], 2.48 nM; as for `O=C(N1CC(C23CC(CNC4(C(F)(F)F)CC4)(C2)C3)C1)N1CC2(CC(n3cnc(C(F)(F)F)n3)C2)C1` [Example 420, [3-[3-[[[1-(trifluoromethyl)cyclopropyl]amino]methyl]-1-bicyclo[1.1.1]pentanyl]azetidin-1-yl]-[6-[3-(trifluoromethyl)-1,2,4-triazol-1-yl]-2-azaspiro[3.3]heptan-2-yl]methanone], 0.74 nM.
As for `O=C(N1CC(C23CC(NCC4(C(F)(F)F)CC4)(C2)C3)C1)N1CC2(CC(n3cnc(C(F)(F)F)n3)C2)C1` [Example 421, [3-[3-[[1-(trifluoromethyl)cyclopropyl]methylamino]-1-bicyclo[1.1.1]pentanyl]azetidin-1-yl]-[6-[3-(trifluoromethyl)-1,2,4-triazol-1-yl]-2-azaspiro[3.3]heptan-2-yl]methanone], the figure is 0.76 nM.
As for `O=C(N1CC(c2ccc(N3CC(C(F)(F)F)C3)nc2)C1)N1CC2(CC(n3cnc(C(F)(F)F)n3)C2)C1` [Example 422, [3-[6-[3-(trifluoromethyl)azetidin-1-yl]-3-pyridyl]azetidin-1-yl]-[6-[3-(trifluoromethyl)-1,2,4-triazol-1-yl]-2-azaspiro[3.3]heptan-2-yl]methanone], the figure is 2.81 nM; as for `O=C(N1CC(c2cnc(N3CC(C(F)(F)F)C3)nc2)C1)N1CC2(CC(n3cnc(C(F)(F)F)n3)C2)C1` [Example 423, [3-[2-[3-(trifluoromethyl)azetidin-1-yl]pyrimidin-5-yl]azetidin-1-yl]-[6-[3-(trifluoromethyl)-1,2,4-triazol-1-yl]-2-azaspiro[3.3]heptan-2-yl]methanone], 38.5 nM.
`O=C(N1CC(c2ccc(NCC3(C(F)(F)F)CC3)nc2)C1)N1CC2(CC(n3cnc(C(F)(F)F)n3)C2)C1` [Example 424, [3-[6-[[1-(trifluoromethyl)cyclopropyl]methylamino]-3-pyridyl]azetidin-1-yl]-[6-[3-(trifluoromethyl)-1,2,4-triazol-1-yl]-2-azaspiro[3.3]heptan-2-yl]methanone] returned an IC50 of 0.16 nM.
As for `CC1(Cc2nnc(-c3ccc(C4CN(C(=O)N5CC6(CC(n7cnc(C(F)(F)F)n7)C6)C5)C4)cc3)[nH]2)CC1` [Example 425, [3-[4-[5-[(1-methylcyclopropyl)methyl]-4H-1,2,4-triazol-3-yl]phenyl]azetidin-1-yl]-[6-[3-(trifluoromethyl)-1,2,4-triazol-1-yl]-2-azaspiro[3.3]heptan-2-yl]methanone], the figure is 5.55 nM; as for `O=C(N1CC(c2ccc(N3CC[C@H](C(F)(F)F)C3)nc2)C1)N1CC2(CC(n3cnc(C(F)(F)F)n3)C2)C1` [Example 426, [3-[6-[(3S)-3-(trifluoromethyl)pyrrolidin-1-yl]-3-pyridyl]azetidin-1-yl]-[6-[3-(trifluoromethyl)-1,2,4-triazol-1-yl]-2-azaspiro[3.3]heptan-2-yl]methanone], 0.7 nM.
As for `O=C(N1CC(c2ccc(N3CC[C@@H](C(F)(F)F)C3)nc2)C1)N1CC2(CC(n3cnc(C(F)(F)F)n3)C2)C1` [Example 427, [3-[6-[(3R)-3-(trifluoromethyl)pyrrolidin-1-yl]-3-pyridyl]azetidin-1-yl]-[6-[3-(trifluoromethyl)-1,2,4-triazol-1-yl]-2-azaspiro[3.3]heptan-2-yl]methanone], the figure is 0.53 nM; as for `O=C(N1CC(c2ccc(NCC3CS(=O)(=O)C3)nc2)C1)N1CC2(CC(n3cnc(C(F)(F)F)n3)C2)C1` [Example 428, [3-[6-[(1,1-dioxothietan-3-yl)methylamino]-3-pyridyl]azetidin-1-yl]-[6-[3-(trifluoromethyl)-1,2,4-triazol-1-yl]-2-azaspiro[3.3]heptan-2-yl]methanone], 58.5 nM; as for `NC(=O)c1ccccc1-c1ccc(C2CN(C(=O)N3CC4(CC(n5cnc(C(F)(F)F)n5)C4)C3)C2)cc1` [Example 429, 2-[4-[1-[6-[3-(trifluoromethyl)-1,2,4-triazol-1-yl]-2-azaspiro[3.3]heptane-2-carbonyl]azetidin-3-yl]phenyl]benzamide], 0.66 nM.
`CS(=N)(=O)c1ccc(CC2CC3(C2)CN(C(=O)N2CC4(CC(n5cnc(C(F)(F)F)n5)C4)C2)C3)cc1` (stereo not drawn) [Example 430, [6-[[4-(methylsulfonimidoyl)phenyl]methyl]-2-azaspiro[3.3]heptan-2-yl]-[6-[3-(trifluoromethyl)-1,2,4-triazol-1-yl]-2-azaspiro[3.3]heptan-2-yl]methanone] had an IC50 of 17.2 nM.
Under `CS(=N)(=O)c1cccc(CC2CC3(C2)CN(C(=O)N2CC4(CC(n5cnc(C(F)(F)F)n5)C4)C2)C3)c1` (stereo not drawn) [Example 431, [6-[[3-(methylsulfonimidoyl)phenyl]methyl]-2-azaspiro[3.3]heptan-2-yl]-[6-[3-(trifluoromethyl)-1,2,4-triazol-1-yl]-2-azaspiro[3.3]heptan-2-yl]methanone] stands 10.3 nM; under `O=C(N1CC(C23CC(c4nnc(C5CC5)[nH]4)(C2)C3)C1)N1CC2(CC(n3cnc(C4CC4)n3)C2)C1` [Example 432, [6-(3-cyclopropyl-1,2,4-triazol-1-yl)-2-azaspiro[3.3]heptan-2-yl]-[3-[3-(5-cyclopropyl-4H-1,2,4-triazol-3-yl)-1-bicyclo[1.1.1]pentanyl]azetidin-1-yl]methanone], 8.3 nM; under `O=C(N1CC(C23CC(c4nnc(C5CC5)[nH]4)(C2)C3)C1)N1CC2(CC(n3cnc(C(F)(F)F)n3)C2)C1` [Example 433, [3-[3-(5-cyclopropyl-4H-1,2,4-triazol-3-yl)-1-bicyclo[1.1.1]pentanyl]azetidin-1-yl]-[6-[3-(trifluoromethyl)-1,2,4-triazol-1-yl]-2-azaspiro[3.3]heptan-2-yl]methanone], 44.1 nM.
Under `O=C(N1CC2(CC(n3cnc(C4CC4)n3)C2)C1)N1CC2(CCN(Cc3ccc(C(F)(F)F)nc3)C2)C1` [Example 434] stands 3.37 nM.
In the case of `O=C(N1CC(C23CC(c4nnc(CC(F)(F)F)o4)(C2)C3)C1)N1CC2(CC(n3cnc(C4CC4)n3)C2)C1` [Example 435, [6-(3-cyclopropyl-1,2,4-triazol-1-yl)-2-azaspiro[3.3]heptan-2-yl]-[3-[3-[5-(2,2,2-trifluoroethyl)-1,3,4-oxadiazol-2-yl]-1-bicyclo[1.1.1]pentanyl]azetidin-1-yl]methanone], the IC50 was found to be 7.69 nM.
